Holding throughout (assay): relative viability (nuclei count vs DMSO), 5 days (fraction); higher = more cells survive
Compound in assay [1]: C1CC(C1)(C(=O)O)C(=O)O.[NH2-].[NH2-].[Pt+2] [Carboplatin] + CS(=O)(=O)N1CCN(Cc2cc3nc(-c4cccc5[nH]ncc45)nc(N4CCOCC4)c3s2)CC1 [Pictilisib] (partner 1 µM)
An outline of the steps:
(§1)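 Five library-drug doses in √10 steps were combined with a fixed anchor-drug dose, or a single drug was given alone, by pin tool to lung cancer cell lines in 1536-well plates the day after seeding. Nuclei were stained and counted after 5 days. Relative viability is the nuclei count in treated wells over that in vehicle wells, taken as the median of duplicate plates.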

Compound in assay [2]: NS(=O)(=O)OC[C@@H]1C[C@@H](n2ccc3c(N[C@H]4CCc5ccccc54)ncnc32)C[C@@H]1O [MLN4924] + CC(=O)Nc1cccc(-n2c(=O)n(C3CC3)c(=O)c3c(Nc4ccc(I)cc4F)n(C)c(=O)c(C)c32)c1 [Trametinib] (partner 0.02 µM)
A digest of the protocol: as §1

Compound in assay [3]: NS(=O)(=O)OC[C@@H]1C[C@@H](n2ccc3c(N[C@H]4CCc5ccccc54)ncnc32)C[C@@H]1O [MLN4924] + CC(=O)c1c(C)c2cnc(Nc3ccc(N4CCNCC4)cn3)nc2n(C2CCCC2)c1=O [Palbociclib] (partner 0.5 µM)
An outline of the steps: as §1

Compound in assay [4]: NS(=O)(=O)OC[C@@H]1C[C@@H](n2ccc3c(N[C@H]4CCc5ccccc54)ncnc32)C[C@@H]1O [MLN4924] + NC(=O)Nc1cc(-c2cccc(F)c2)sc1C(=O)N[C@H]1CCCNC1 [AZD7762] (partner 0.2 µM)
A digest of the protocol:
as §1

The source of these data is the supplement of paper PMC10307832.

Regarding NCI-H2170, the relative viability in assay [1] (first compound 0.08 µM) came to 0.361; in assay [1] (first compound 0.253 µM) it was 0.266; in assay [1] (first compound 0.8 µM) it was 0.357; in assay [1] (first compound 2.53 µM), 0.33; in assay [1] (first compound 8 µM), 0.283; in assay [2] (first compound 0.04 µM) it was 0.879. Besides, the relative viability in assay [2] (first compound 0.1265 µM) worked out at 0.537; in assay [2] (first compound 0.4 µM) it was 0.467; in assay [2] (first compound 1.265 µM) it was 0.155; in assay [2] (first compound 4 µM), 0.126; in assay [3] (first compound 0.04 µM), 0.392; in assay [3] (first compound 0.1265 µM), 0.242. Also, the relative viability in assay [3] (first compound 0.4 µM) is 0.253; in assay [3] (first compound 1.265 µM) it was 0.109; in assay [3] (first compound 4 µM), 0.124; in assay [4] (first compound 0.04 µM) it was 0.9; in assay [4] (first compound 0.1265 µM), 0.536; in assay [4] (first compound 0.4 µM) it was 0.544. The relative viability is 0.147 in assay [4] (first compound 1.265 µM) and 0.112 in assay [4] (first compound 4 µM).

On to NCI-H2347, for which the relative viability amounted to 0.65 in assay [1] (first compound 0.08 µM); 0.516 in assay [1] (first compound 0.253 µM); 0.623 in assay [1] (first compound 0.8 µM); 0.708 in assay [1] (first compound 2.53 µM); 0.74 in assay [1] (first compound 8 µM); 0.312 in assay [2] (first compound 0.04 µM). Moreover, the relative viability in assay [2] (first compound 0.1265 µM) was found to be 0.32; in assay [2] (first compound 0.4 µM) it was 0.284; in assay [2] (first compound 1.265 µM), 0.265; in assay [2] (first compound 4 µM), 0.293; in assay [3] (first compound 0.04 µM), 0.426; in assay [3] (first compound 0.1265 µM), 0.46. The relative viability in assay [3] (first compound 0.4 µM) amounted to 0.399; in assay [3] (first compound 1.265 µM), 0.312; in assay [3] (first compound 4 µM), 0.339; in assay [4] (first compound 0.04 µM), 0.904; in assay [4] (first compound 0.1265 µM), 0.834; in assay [4] (first compound 0.4 µM), 0.536. Further, the relative viability in assay [4] (first compound 1.265 µM) came to 0.252; in assay [4] (first compound 4 µM), 0.242.

Turning to NCI-H2405, the relative viability amounted to 0.588 in assay [1] (first compound 0.08 µM); 0.405 in assay [1] (first compound 0.253 µM); 0.472 in assay [1] (first compound 0.8 µM); 0.45 in assay [1] (first compound 2.53 µM); 0.428 in assay [1] (first compound 8 µM); 0.882 in assay [2] (first compound 0.04 µM). The relative viability came out at 0.893 in assay [2] (first compound 0.1265 µM); 0.621 in assay [2] (first compound 0.4 µM); 0.292 in assay [2] (first compound 1.265 µM); 0.254 in assay [2] (first compound 4 µM); 0.516 in assay [3] (first compound 0.04 µM); 0.456 in assay [3] (first compound 0.1265 µM). In addition, the relative viability in assay [3] (first compound 0.4 µM) is 0.41; in assay [3] (first compound 1.265 µM), 0.22; in assay [3] (first compound 4 µM) it was 0.252; in assay [4] (first compound 0.04 µM) it was 1.05; in assay [4] (first compound 0.1265 µM), 0.964; in assay [4] (first compound 0.4 µM), 0.557. The relative viability in assay [4] (first compound 1.265 µM) is 0.225; in assay [4] (first compound 4 µM) it was 0.245.

With NCI-H3122, the relative viability in assay [1] (first compound 0.08 µM) amounted to 0.62; in assay [1] (first compound 0.253 µM), 0.659; in assay [1] (first compound 0.8 µM), 0.549; in assay [1] (first compound 2.53 µM), 0.593; in assay [1] (first compound 8 µM), 0.563; in assay [2] (first compound 0.04 µM), 0.25. Moreover, the relative viability in assay [2] (first compound 0.1265 µM) came out at 0.162; in assay [2] (first compound 0.4 µM), 0.204; in assay [2] (first compound 1.265 µM) it was 0.136; in assay [2] (first compound 4 µM), 0.098; in assay [3] (first compound 0.04 µM), 0.162; in assay [3] (first compound 0.1265 µM), 0.0893. The relative viability in assay [3] (first compound 0.4 µM) was 0.129; in assay [3] (first compound 1.265 µM), 0.0849; in assay [3] (first compound 4 µM), 0.0684; in assay [4] (first compound 0.04 µM), 0.916; in assay [4] (first compound 0.1265 µM) it was 0.485; in assay [4] (first compound 0.4 µM), 0.229. The relative viability in assay [4] (first compound 1.265 µM) turned out to be 0.132; in assay [4] (first compound 4 µM) it was 0.105.

PC-3 [JPC-3]: the relative viability was 0.912 in assay [1] (first compound 0.08 µM); 0.684 in assay [1] (first compound 0.253 µM); 0.761 in assay [1] (first compound 0.8 µM); 0.701 in assay [1] (first compound 2.53 µM); 0.706 in assay [1] (first compound 8 µM); 0.625 in assay [2] (first compound 0.04 µM). Also, the relative viability was determined as 0.727 in assay [2] (first compound 0.1265 µM); 0.495 in assay [2] (first compound 0.4 µM); 0.538 in assay [2] (first compound 1.265 µM); 0.374 in assay [2] (first compound 4 µM); 0.556 in assay [3] (first compound 0.04 µM); 0.53 in assay [3] (first compound 0.1265 µM). The relative viability in assay [3] (first compound 0.4 µM) is 0.373; in assay [3] (first compound 1.265 µM) it was 0.346; in assay [3] (first compound 4 µM), 0.46; in assay [4] (first compound 0.04 µM) it was 0.854; in assay [4] (first compound 0.1265 µM), 0.964; in assay [4] (first compound 0.4 µM), 0.736. Further, the relative viability in assay [4] (first compound 1.265 µM) came to 0.328; in assay [4] (first compound 4 µM), 0.334.

For the cell line PC-14, the relative viability in assay [1] (first compound 0.08 µM) was found to be 0.815; in assay [1] (first compound 0.253 µM) it was 0.744; in assay [1] (first compound 0.8 µM) it was 0.62; in assay [1] (first compound 2.53 µM) it was 0.698; in assay [1] (first compound 8 µM), 0.349; in assay [2] (first compound 0.04 µM), 1.01. Further, the relative viability in assay [2] (first compound 0.1265 µM) turned out to be 0.624; in assay [2] (first compound 0.4 µM), 0.259; in assay [2] (first compound 1.265 µM), 0.0838; in assay [2] (first compound 4 µM), 0.0619; in assay [3] (first compound 0.04 µM) it was 0.463; in assay [3] (first compound 0.1265 µM), 0.416. The relative viability in assay [3] (first compound 0.4 µM) was found to be 0.138; in assay [3] (first compound 1.265 µM), 0.0525; in assay [3] (first compound 4 µM), 0.0516; in assay [4] (first compound 0.04 µM), 0.335; in assay [4] (first compound 0.1265 µM), 0.405; in assay [4] (first compound 0.4 µM), 0.347. The relative viability in assay [4] (first compound 1.265 µM) was 0.166; in assay [4] (first compound 4 µM) it was 0.127.

Regarding RERF-LC-KJ, the relative viability in assay [1] (first compound 0.08 µM) amounted to 0.584; in assay [1] (first compound 0.253 µM), 0.48; in assay [1] (first compound 0.8 µM), 0.512; in assay [1] (first compound 2.53 µM), 0.453; in assay [1] (first compound 8 µM), 0.316; in assay [2] (first compound 0.04 µM) it was 0.8. Moreover, the relative viability in assay [2] (first compound 0.1265 µM) is 0.66; in assay [2] (first compound 0.4 µM) it was 0.365; in assay [2] (first compound 1.265 µM) it was 0.215; in assay [2] (first compound 4 µM), 0.203; in assay [3] (first compound 0.04 µM), 0.875; in assay [3] (first compound 0.1265 µM) it was 0.363. In addition, the relative viability in assay [3] (first compound 0.4 µM) came out at 0.184; in assay [3] (first compound 1.265 µM), 0.152; in assay [3] (first compound 4 µM), 0.218; in assay [4] (first compound 0.04 µM), 0.941; in assay [4] (first compound 0.1265 µM), 0.738; in assay [4] (first compound 0.4 µM) it was 0.256. The relative viability amounted to 0.182 in assay [4] (first compound 1.265 µM) and 0.253 in assay [4] (first compound 4 µM).
